{"source": "patent US10837969B2", "about": "“Therapeutic and diagnostic methods for autism spectrum disorders and other conditions” (THE JOHNS HOPKINS UNIVERSITY, priority 2012, dated 2020)", "key": {"[1]": {"test_system": "NSC treated with MCAD-IgG", "assay": "Attenuation of MCAD-IgG effect on NSC differentiation (beta-III tubulin/GFAP immunostaining)", "assay_type": "cell-based, human", "description": "Cell Proliferation and Differentiation Assays. Cell proliferation was assessed by BrdU incorporation. The cells were first treated with MCAD or control antibodies for 18 hours and then for 6 hours with BrdU (Sigma) followed by immunostaining for BrdU. When subjected to differentiation, media was replaced with DMEM/F12 containing 2% FBS. The NPC were capable of differentiating into neurons (40-60%) and astrocytes (20-50%) after 4-7 days. Immunocytochemistry. Cells were fixed in 4% (w/v) paraformaldehyde and permeabilized by incubation in 0.5% (v/v) Triton X-100 in PBS (PBS-T) for 20 min. For BrdU staining, the cells were also denatured in 2N HCl at 37° C. for 30 min and rinsed twice in 0.1 M sodium borate, pH 8.5. Cells were immunostained using monoclonal anti-BrdU (1:1000; Sigma-Aldrich), monoclonal anti-β-III-tubulin (1:1000; Promega), rabbit anti-GFAP (1:1000; Sigma-Aldrich), monoclonal anti-AT-1 (1:50; Abcam, Cambridge Mass.) or rabbit anti-active caspase-3 (1:1000; Sigma-Aldrich), followed by corresponding secondary antibodies (anti-rabbit Alexa Fluor 488, 1:400; anti-mouse Alexa Fluor […], 1:400; Invitrogen) and 4′,6-diamidino-2-phenylindole (DAPI) for nuclear staining. Images were acquired on a Zeiss LSM 510 META multiphoton confocal system (Carl Zeiss). […] Neurogenesis was determined after 4 days using immunostaining for beta-III tubulin and GFAP."}, "human NSC": {"test_system": "human NSC", "assay": "NSC proliferation by BrdU incorporation", "assay_type": "cell-based", "details": "preliminary in vitro study", "description": "Cell Cultures. Reagents for cell culture were purchased from Invitrogen (Carlsbad, Calif.) if not otherwise specified. Human NPC were cultured as published previously ^24 in accordance with NIH guidelines and following approval by the Institutional Review Board at Johns Hopkins University and the National Institutes of Health. Briefly, human fetal brain specimens of 7-8 weeks gestation were obtained from Birth Defects Research Laboratory, University of Washington, Seattle. The tissues were then triturated into single cells after removing meninges and blood vessels. […] NSC cultures were ready for experiments 4-5 days after replating and >98% of the cells expressed the neural stem cell marker, nestin while <1% of the cells expressed glial fibrillary acidic protein (GFAP, a marker for astrocytes) or beta-III tubulin (a neuronal cell marker) as determined by immunocytochemistry.\nCell Proliferation and Differentiation Assays. Cell proliferation was assessed by BrdU incorporation. […]\nMCAD-IgG Inhibits NSC Proliferation. […] The number of proliferating cells were determined by calculating the percentage of BrdU immunopositive cells. […] Cell toxicity was also evaluated using cellquanti-blue assay. […]"}, "NSC": {"test_system": "NSC", "assay": "CellQuanti-Blue cytotoxicity assay", "assay_type": "cell-based", "details": "higher concentrations, 10-100 uM", "description": "Cytotoxicity Assays. Cytotoxicity was determined by using CellQuanti-Blue Cell Viability Assay kit (BioAssay Systems) as previously published^24. Briefly, NSCs were cultured in poly-D-lysine coated 96-well plates and used for experiments at ˜60% confluence. […] After 24 hours, CellQuanti-Blue solution (10 μl/well) was added and the cells were incubated for 1 hour. The fluorescence was quantified at an excitation wavelength of 530 nm and emission wavelength of 590 nm using a fluorescence plate reader.\nMCAD-IgG Inhibits NSC Proliferation. The effect of MCAD on NSC proliferation was studied by exposing cultured human NSC to corresponding concentrations (1:500 to 1:50) of MCAD or MUC antibodies for 24 hours in the presence of BrdU for the last 6 hours. The number of proliferating cells were determined by calculating the percentage of BrdU immunopositive cells. […] Another group of NSC similarly treated with the MCAD or MUC antibodies were also immunostained for active-caspase-3 to determine if MCAD-IgG could induce apoptosis in these cells. […] Cell toxicity was also evaluated using cellquanti-blue assay. To exclude the effect of cell proliferation, NSC cultures were treated with MCAD- or MUC-IgG in growth factor-free media for 24 hours before the cellquanti-blue solution was added. […] Thus MCAD-IgG inhibited NSC proliferation without causing cell death."}, "AT-1 receptor": {"molecular_target": "T1, AT-1 receptor (Homo sapiens, UniProt P30556)", "T1 construct": "found prominent expression of the receptor on the cell surface; endogenous in cells; host or cells: human fetal brain-derived neural stem/progenitor cells (NSC/NPC), 7-8 weeks gestation", "T1 sequence (P30556 1-359)": "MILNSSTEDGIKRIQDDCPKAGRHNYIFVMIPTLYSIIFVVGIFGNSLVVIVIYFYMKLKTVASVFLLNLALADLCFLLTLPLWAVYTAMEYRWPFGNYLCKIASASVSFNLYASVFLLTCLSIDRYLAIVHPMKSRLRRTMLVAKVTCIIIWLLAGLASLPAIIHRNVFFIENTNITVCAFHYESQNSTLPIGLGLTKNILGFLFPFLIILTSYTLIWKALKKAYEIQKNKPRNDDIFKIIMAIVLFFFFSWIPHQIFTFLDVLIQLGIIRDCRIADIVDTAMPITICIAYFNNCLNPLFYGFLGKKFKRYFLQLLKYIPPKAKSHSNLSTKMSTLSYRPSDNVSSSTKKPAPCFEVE", "details": "in vitro, IgG from pre-eclamptic patients; cited from earlier work"}}, "data": [{"smiles": "Fc1ccc([C@@H]2CCNC[C@H]2COc2ccc3c(c2)OCO3)cc1", "note": "[Paroxetine, paroxetine]", "values": [{"measurement": "effect on MCAD-IgG caused inhibition of neurogenesis and enhanced astroglial differentiation", "setting": "[1]; 20 nM-2 uM, 1 hour prior to MCAD-IgG (1:50), after 4 days", "value": "reversed MCAD-IgG caused inhibition of neurogenesis and enhanced astroglial differentiation"}, {"measurement": "proliferation of NSC", "setting": "human NSC", "value": "increased proliferation of NSC in a concentration-dependent manner"}]}, {"smiles": "CCCc1nc2c(C)cc(-c3nc4ccccc4n3C)cc2n1Cc1ccc(-c2ccccc2C(=O)O)cc1", "note": "[Telmisartan]", "values": [{"measurement": "effect on MCAD-IgG caused changes in neuronal and astroglial differentiation", "setting": "[1]; 10 nM, pretreatment 30 min prior to IgG", "value": "significantly attenuated MCAD-IgG caused effect on neuronal and astroglial differentiation"}, {"measurement": "toxicity in cells, cellquanti-blue", "setting": "NSC", "value": "caused toxicity in cells"}]}, {"smiles": "CCCCc1nc(Cl)c(CO)n1Cc1ccc(-c2ccccc2-c2nn[nH]n2)cc1", "note": "[losartan]", "values": [{"measurement": "blockade of patient IgG-induced constriction of villus veins and arteries", "setting": "AT-1 receptor", "value": "could be blocked"}]}]}
